Measured values reported in article PMC4542628, “Lys39-Lysophosphatidate Carbonyl Oxygen Interaction Locks LPA1 N-terminal Cap to the Orthosteric Site and partners Arg124 During Receptor Activation” (Scientific Reports, 2015).

Tests used:
[1] = molecular target: T1, wildtype LPA1 (Homo sapiens, UniProt Q92633); assay: Intracellular calcium mobilization in B103 cells expressing wild-type LPA1; assay type: cell-based
T1 construct: expressed in transfected cells; host or cells: B103 rat neuroblastoma cells (lack LPA response), electroporated
T1 sequence (Q92633 whole entry): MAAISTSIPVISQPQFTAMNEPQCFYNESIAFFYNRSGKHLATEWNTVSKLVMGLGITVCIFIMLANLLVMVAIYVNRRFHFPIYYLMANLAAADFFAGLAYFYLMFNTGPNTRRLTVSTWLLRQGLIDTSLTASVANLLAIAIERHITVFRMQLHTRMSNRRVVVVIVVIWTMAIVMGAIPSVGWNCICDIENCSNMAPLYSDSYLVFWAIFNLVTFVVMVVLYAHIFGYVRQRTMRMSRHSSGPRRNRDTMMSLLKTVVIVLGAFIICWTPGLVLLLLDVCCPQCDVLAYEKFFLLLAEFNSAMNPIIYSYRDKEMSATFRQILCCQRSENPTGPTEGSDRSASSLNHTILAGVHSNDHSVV
Excerpt: (§1) PCXN2.1-LPA1, an expression vector for human LPA1, was kindly provided by Dr. T. Shimizu (NCGM, Tokyo) (40). The mutants of LPA1 (Lys39Ala, Arg115Ala, Arg124Ala, Asp191Ala and Lys294Ala) were generated by a two-step PCR. The cDNA of the 5′ portion of LPA1 was amplified by PCR using a forward primer containing XhoI site and reverse primers containing the sequence encoding the mutated amino acids. The 3′ portion was also amplified with forward primers containing the mutated sequence and a reverse primer containing NotI and BglII sites. All cDNAs of the LPA1 variants were amplified using a mixture of the two PCR products together with the XhoI and NotI-containing primers. The resulting 1.0 KB products were cloned into a pCRII-Topo vector for sequence analysis. The cDNA of LPA1 mutants were cut out from pCRII-Topo by XhoI and NotI, and ligated into the XhoI/NotI sites of pCAGGS-HA (41), to generate pCAGGS-HA-LPA1 mutants.
(§2) B103 rat neuroblastoma cells that lack LPA response were cultured in DMEM containing 10% fetal bovine serum at 37 °C in a 5% CO2 atmosphere. […] After 30 min, 20 μl of the LPA species at defined concentration was added followed by an immediate recording of the fluorescence using the Functional Drug Screening System/μCell (Hamamatsu Photonics K.K., Hamamatsu city, Japan). The fluorescence intensity was described as fura-2 ratio (tested value/basal value) or fold induction. […]

[2] = system: LPA1; design: method as in earlier work; settings: acting on LPA1; ref 31 (Williams et al.); cited from earlier work
[3] = molecular target: T2, LPA1 K7.36A mutant (Homo sapiens, UniProt Q92633, K294A); assay: Intracellular calcium mobilization in B103 cells expressing K7.36A LPA1 mutant; assay type: cell-based; settings: at the highest concentration tested
T2 construct: expressed in transfected cells; host or cells: B103 rat neuroblastoma cells, electroporated with pCAGGS-HA-LPA1 mutant
T2 sequence (Q92633 whole entry K294A): as the sequence (Q92633 whole entry) above, with K294A counted along it
Excerpt: as §1, §2

| Compound | potency compared with LPA (18:1), dose-response curve [1] | EC50 [2] | intracellular calcium mobilization, Emax levels of the wildtype [3] |
| --- | --- | --- | --- |
| alkyl glycerol phosphate 18:1 [AGP (18:1)] | right-shift in the dose-response curve | 1.5 µM | – |
| CCCCC/C=C\C/C=C\C/C=C\C/C=C\CCCC(=O)OC[C@@H](O)COP(=O)(O)O.N [LPA 20:4, 1-arachidonoyl-2-hydroxy-sn-glycero-3-phosphate (ammonium salt)] | – | – | ≈ 60% |
